The values that follow are results of earlier work, collected in patent US20120129799A1, “STABLE COMPOSITION OF READY-TO-USE GEMCITABINE INJECTION” (ASTRON RESEARCH LIMITED, priority 2009, published 2012).

Molecules are shown by their SMILES. “Also recorded” adds a separate entry of the source.

For data set [1] the following is noted: higher pH (5.0 to 9.0).

Consider `Nc1ccn([C@@H]2O[C@H](CO)[C@@H](O)C2(F)F)c(=O)n1` [Gemcitabine, 1-(2-oxo-4-amino-1,2-dihydropyrimidin-1-yl)-2-deoxy-2,2-difluororibose], for which the degradation products obtained entry (aqueous solution, pH 3.2 (sodium acetate), thermally stressed conditions) is recorded as “four significant degradation products”. Further, the “chemical stability of aqueous solution” value (aqueous solution, pH of approximately 3.0) is “not chemically stable”. The “stability in aqueous solution” value (higher pH (5.0 to 9.0)) was “remains stable”. Also, the stability result (lower pH) is listed as “poor stability”. Moreover, in data set [1], the aqueous solubility result is given as “low aqueous solubility; also recorded: very low solubility”.
